Data taken from ChEMBL document CHEMBL6092179, “Discovery of CLKs inhibitors for the treatment of non-small cell lung cancer” (Eur J Med Chem, 2024).
Active and inactive are the calls of the source. The calls are words filed in the database; no cut-off is given here.

Experiments:
NCI-H1299 [1] = assay: cells; settings: Homo sapiens, NCI-H1299, 48 h
Description: Antiproliferative activity against human NCI-H1299 cells assessed as inhibition of cell growth incubated for 48 hrs by MTT assay

A549 = assay: cells; settings: Homo sapiens, A549, 48 h
Description: Antiproliferative activity against human A549 cells assessed as inhibition of cell growth incubated for 48 hrs by MTT assay

[2] = system: Osimertinib-resistant NCI-H1975 cell; assay: cells; settings: Homo sapiens, 48 h
Description: Antiproliferative activity against human Osimertinib-resistant NCI-H1975 cell assessed as inhibition of cell growth incubated for 48 hrs by MTT assay

[3] = target: T1, Dual specificity protein kinase CLK2 (Homo sapiens, UniProt P49760); assay: Inhibition of CLK2 (unknown origin) by ADP-Glo assay
Target sequence in this assay (P49760 whole entry): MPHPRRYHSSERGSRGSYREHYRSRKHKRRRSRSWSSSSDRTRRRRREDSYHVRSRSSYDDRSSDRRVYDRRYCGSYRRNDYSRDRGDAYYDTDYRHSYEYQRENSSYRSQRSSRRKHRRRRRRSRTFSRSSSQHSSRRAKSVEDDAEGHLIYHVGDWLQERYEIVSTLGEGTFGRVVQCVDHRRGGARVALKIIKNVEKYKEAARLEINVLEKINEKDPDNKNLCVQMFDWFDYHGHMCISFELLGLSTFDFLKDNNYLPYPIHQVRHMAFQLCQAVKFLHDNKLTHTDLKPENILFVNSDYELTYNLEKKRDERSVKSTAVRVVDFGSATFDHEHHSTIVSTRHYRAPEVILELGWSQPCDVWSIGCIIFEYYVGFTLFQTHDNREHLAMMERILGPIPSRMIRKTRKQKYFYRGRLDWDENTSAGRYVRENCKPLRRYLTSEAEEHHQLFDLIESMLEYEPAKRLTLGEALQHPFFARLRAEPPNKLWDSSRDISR

HCC827 = assay: cells; settings: Homo sapiens, HCC827, 48 h
Description: Antiproliferative activity against human HCC827 cells assessed as inhibition of cell growth incubated for 48 hrs by MTT assay

cells = settings: Homo sapiens, Osimertinib-resistant HCC827AR cell, 48 h
Description: Antiproliferative activity against human Osimertinib-resistant HCC827AR cell assessed as inhibition of cell growth incubated for 48 hrs by MTT assay

NCI-H1975 = assay: cells; settings: Homo sapiens, NCI-H1975, 48 h
Description: Antiproliferative activity against human NCI-H1975 cells assessed as inhibition of cell growth incubated for 48 hrs by MTT assay

[4] = target: T1, Dual specificity protein kinase CLK2; settings: dose 20.0 nM
Target sequence in this assay (P49760 whole entry, looked up): as the sequence (P49760 whole entry) above
Description: Inhibition of CLK2 (unknown origin) at 20 nM by ADP-Glo assay relative to control

NCI-H1299 [5] = assay: Inhibition of colony formation in human NCI-H1299 cells at 1 uM incubated for 7 days by crystal violet staining based analysis; assay type: functional, cell-based; settings: time 7.0 day
[6] = target: Dual specificity protein kinase CLK3 (Homo sapiens, UniProt P49761); assay: Inhibition of CLK3 (unknown origin) by ADP-Glo assay
Chain of Dual specificity protein kinase CLK3 (P49761 whole entry): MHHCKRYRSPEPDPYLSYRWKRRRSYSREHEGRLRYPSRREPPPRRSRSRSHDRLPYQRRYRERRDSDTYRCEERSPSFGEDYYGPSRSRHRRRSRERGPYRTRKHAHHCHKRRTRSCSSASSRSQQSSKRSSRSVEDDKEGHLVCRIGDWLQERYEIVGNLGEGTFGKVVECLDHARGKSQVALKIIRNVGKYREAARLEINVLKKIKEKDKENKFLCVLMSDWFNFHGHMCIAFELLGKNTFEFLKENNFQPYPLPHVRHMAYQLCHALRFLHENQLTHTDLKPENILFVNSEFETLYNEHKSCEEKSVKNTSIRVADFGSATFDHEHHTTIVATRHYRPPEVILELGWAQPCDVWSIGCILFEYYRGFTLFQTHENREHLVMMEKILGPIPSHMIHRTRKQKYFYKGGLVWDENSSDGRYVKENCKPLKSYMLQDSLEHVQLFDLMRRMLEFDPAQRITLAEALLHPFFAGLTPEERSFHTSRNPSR

| Structure (SMILES) | IC50 (NCI-H1299 [1]) [µM] | other results |
| --- | --- | --- |
| CCc1[nH]c(-c2n[nH]c3ccc(-c4cncc(NC(=O)CC(C)C)c4)cc23)nc1C | 1.62 | – |
| Cc1nc(-c2n[nH]c3ccc(-c4cncc(OC[C@@H](N)CC(C)C)c4)cc23)[nH]c1-c1ccccc1 | 0.45 | – |
| CC(C)CC(=O)Nc1cncc(-c2ccc3[nH]nc(-c4nc(-c5cccc(C(F)(F)F)c5)c[nH]4)c3c2)c1 | 3.07 | – |
| CC(C)CC(=O)Nc1cncc(-c2ccc3[nH]nc(-c4nc(-c5ccco5)c(-c5ccco5)[nH]4)c3c2)c1 | 1.53 | – |
| FC1(F)CCN(Cc2cncc(-c3ccc4[nH]nc(-c5nc(-c6ccsc6)c[nH]5)c4c3)c2)C1 | 1.38 | – |
| CC(C)C[C@H](N)COc1cncc(-c2ccc3[nH]nc(-c4nc(-c5cccc(C(F)(F)F)c5)c[nH]4)c3c2)c1 | 1.16 | – |
| Cc1nc(-c2n[nH]c3ccc(-c4cncc(NC(=O)CC(C)C)c4)cc23)[nH]c1-c1ccccc1 | 1.38 | – |
| FC1(F)CCN(Cc2cncc(-c3ccc4[nH]nc(-c5nc(-c6ccco6)c[nH]5)c4c3)c2)C1 | 0.72 | – |
| CC(C)C[C@H](N)COc1cncc(-c2ccc3[nH]nc(-c4nc(-c5ccco5)c[nH]4)c3c2)c1 | 0.48 | – |
| CC(C)CC(=O)Nc1cncc(-c2ccc3[nH]nc(-c4nc(-c5ccsc5)c[nH]4)c3c2)c1 | 0.91 | – |
| FC1(F)CCN(Cc2cncc(-c3ccc4[nH]nc(-c5nc(-c6cccnc6)c[nH]5)c4c3)c2)C1 | 0.26 | – |
| FC1(F)CCN(Cc2cncc(-c3ccc4[nH]nc(-c5nc(-c6cccc(C(F)(F)F)c6)c[nH]5)c4c3)c2)C1 | 2.66 | – |
| CC(C)CC(=O)Nc1cncc(-c2ccc3[nH]nc(-c4nc(-c5ccco5)c[nH]4)c3c2)c1 | 1.42 | – |
| CC(C)C[C@H](N)COc1cncc(-c2ccc3[nH]nc(-c4nc(-c5ccsc5)c[nH]4)c3c2)c1 | 1.15 | – |
| CC(C)C[C@H](N)COc1cncc(-c2ccc3[nH]nc(-c4nc(-c5cccnc5)c[nH]4)c3c2)c1 | 0.7 | – |
| Cc1[nH]nc2ccc(-c3cncc(OC[C@@H](N)CC(C)C)c3)cc12 | 2.51 | IC50 (A549): 3.95 µM; IC50 [2]: 1.92 µM; IC50 [3]: 0.0041 µM; IC50 (HCC827): 3.95 µM; IC50 (cells): 3.67 µM; IC50 (NCI-H1975): 1.72 µM; inhibition [4]: 98.5%; inhibition (NCI-H1299 [5]): inactive; IC50 [6]: > 0.1 µM |
| CC(C)C[C@H](N)COc1cncc(-c2ccc3[nH]nc(-c4nc(-c5ccco5)c(-c5ccco5)[nH]4)c3c2)c1 | 1.68 | – |
| Cc1nc(-c2n[nH]c3ccc(-c4cncc(CN5CCC(F)(F)C5)c4)cc23)[nH]c1-c1ccccc1 | 1.62 | – |
| CC(C)C[C@H](N)COc1cncc(-c2ccc3[nH]nc(-c4nc(-c5ccccc5)c(-c5ccccc5)[nH]4)c3c2)c1 | 2.38 | – |
| FC1(F)CCN(Cc2cncc(-c3ccc4[nH]nc(-c5nc(-c6ccccc6)c(-c6ccccc6)[nH]5)c4c3)c2)C1 | 6.58 | – |
| CC(C)CC(=O)Nc1cncc(-c2ccc3[nH]nc(-c4nc(-c5cccnc5)c[nH]4)c3c2)c1 | 0.82 | – |
| FC1(F)CCN(Cc2cncc(-c3ccc4[nH]nc(-c5nc(-c6ccccc6)c[nH]5)c4c3)c2)C1 | 1.27 | – |
